From ChEMBL document CHEMBL3227920, “Synthesis and activities of antitumor agents” (J Med Chem, 1979)
Active and inactive are the calls of the source. No cut-off for these calls is given here.

Legend:
L1210 [1] = test: Antitumor activity against mouse L1210 cells allografted in BDF1 mouse assessed as mean survival days at 8 mg/kg, ip qd for 3 days; format: functional; details: route intraperitoneal
L1210 [2] = test: Antitumor activity against mouse L1210 cells allografted in BDF1 mouse assessed as host survival at 8 mg/kg, ip qd for 3 days measured on day 60 relative to control; format: functional, organism-based; design: dose 8 mg/kg
L1210 [3] = test: Antitumor activity against mouse L1210 cells allografted in BDF1 mouse assessed as increase in life span at 8 mg/kg, ip qd for 3 days relative to control; format: functional; details: route intraperitoneal
L1210 [4] = test: Antitumor activity against mouse L1210 cells allografted in BDF1 mouse assessed as mean survival days at 8 mg/kg, ip qd for 3 days relative to control; format: functional; details: route intraperitoneal
Mus musculus [5] = test: Toxicity in mouse L1210 cells allografted BDF1 mouse assessed as atrophic spleen at 40 mg/kg, ip qd for 3 days; format: organism-based; design: dose 40 mg/kg, route intraperitoneal; details: in vivo, 72 h
Mus musculus [6] = test: Toxicity in mouse L1210 cells allografted BDF1 mouse assessed as atrophic liver at 20 mg/kg, ip qd for 3 days; format: organism-based; design: dose 20 mg/kg, route intraperitoneal; details: in vivo, 72 h
L1210 [7] = test: Antitumor activity against mouse L1210 cells allografted in BDF1 mouse assessed as mean survival days at 20 mg/kg, ip qd for 3 days relative to control; format: functional; details: route intraperitoneal
Mus musculus [8] = test: Toxicity in mouse L1210 cells allografted BDF1 mouse assessed as congestive liver at 40 mg/kg, ip qd for 3 days; format: organism-based; design: dose 40 mg/kg, route intraperitoneal; details: in vivo, 72 h
L1210 [9] = test: Antitumor activity against mouse L1210 cells allografted in BDF1 mouse assessed as mean survival days at 20 mg/kg, ip qd for 3 days; format: functional; details: route intraperitoneal
L1210 [10] = test: Antitumor activity against mouse L1210 cells allografted in BDF1 mouse assessed as increase in life span at 20 mg/kg, ip qd for 3 days relative to control; format: functional; details: route intraperitoneal
L1210 [11] = test: Antitumor activity against mouse L1210 cells allografted in BDF1 mouse assessed as mean survival days at 10 mg/kg, ip qd for 3 days relative to control; format: functional; details: route intraperitoneal
L1210 [12] = test: Antitumor activity against mouse L1210 cells allografted in BDF1 mouse assessed as mean survival days at 10 mg/kg, ip qd for 3 days; format: functional; details: route intraperitoneal
L1210 [13] = test: Antitumor activity against mouse L1210 cells allografted in BDF1 mouse assessed as increase in life span at 10 mg/kg, ip qd for 3 days relative to control; format: functional; details: route intraperitoneal

O=NN(CCCl)C(=O)N[C@@H]1O[C@H](CO)[C@@H](O)[C@H](O)[C@@H]1O
Survival (L1210 [1]): 18.3 days
Activity (L1210 [2]): inactive
Activity (L1210 [3]): 103.3%

O=NN(CCCl)C(=O)N[C@@H]1OC[C@@H](O)[C@H](O)[C@H]1O
Survival (L1210 [1]): 60 days
Activity (L1210 [2]): Active
T/C (L1210 [4]): 11
Activity (L1210 [3]): 445.5%

O=NN(CCCl)C(=O)N[C@@H]1O[C@H](CO)[C@@H](O)[C@H](O)[C@H]1O
Survival (L1210 [1]): 60 days
Activity (L1210 [2]): Active
Activity (L1210 [3]): 512.2%

O=NN(CCCl)C(=O)N[C@@H]1O[C@H](CO)[C@H](O)[C@H](O)[C@H]1O
Survival (L1210 [1]): 47 days
Activity (L1210 [3]): 405.4%

O=NN(CCCl)C(=O)N[C@@H]1O[C@H](CO)[C@@H](O[C@H]2O[C@H](CO)[C@@H](O)[C@H](O)[C@H]2O)[C@H](O)[C@H]1O
Activity (Mus musculus [5]): Toxic
Activity (Mus musculus [6]): Toxic
T/C (L1210 [7]): 9
Activity (Mus musculus [8]): Toxic
Survival (L1210 [9]): 45.3 days
Activity (L1210 [10]): 403.3%

O=NN(CCCl)C(=O)N[C@@H]1O[C@H](CO)[C@@H](O[C@@H]2O[C@H](CO)[C@H](O)[C@H](O)[C@H]2O)[C@H](O)[C@H]1O
T/C (L1210 [11]): 9.7
Survival (L1210 [12]): 47 days
Activity (L1210 [13]): 384.5%

O=NN(CCCl)C(=O)N[C@@H]1O[C@H](CO)[C@@H](O[C@@H]2O[C@H](CO)[C@@H](O)[C@H](O)[C@H]2O)[C@H](O)[C@H]1O
Survival (L1210 [1]): 42 days
T/C (L1210 [4]): 7.2
Activity (L1210 [3]): 483.3%
